≈ marks a conversion by molar mass, not a printed value.
What was measured:
Assay type in all cases: physicochemical
[1] = Solubility of linerixibat drug substance over pH 1.2-6.8 at 37±1° C. (Experiment 8a); details: for solubility at 1 h / solubility at 4 h / solubility at 24 h: 37 °C, thermodynamic from solid; for solubility at 1 h: 1-hr timepoint; for solubility at 4 h: 4-hr timepoint; for solubility at 24 h: 24-hr timepoint
Protocol: The solubility of linerixibat drug substance, in respect of Form I and Form III, was determined over the pH range of 1.2-6.8 at 37±1° C. Eight pH values within this range, including buffers at pH 1.2, 4.5 and 6.8 were evaluated. The therapeutic dose for linerixibat is 40 mg.
• SGF=simulated gastric fluid • BR=Britton Robinson

[2] = Solubility of drug substance samples in biorelevant media and sodium acetate buffer (Experiment 8b); details: for solubility at 1 h / solubility at 4 h / solubility at 24 h: thermodynamic from solid
Description: Solubility data was obtained for drug substance samples of linerixibat Form I, linerixibat Form III, and additionally for a sample of Form I compressed to 100 MPa which therefore contained an amount of Form III, in order to replicate typical forces encountered during tablet manufacture.
The media used for the drug substance samples were biorelevant media likely to be experienced in the stomach and the intestine, namely Simulated Gastric Fluid (SGF) over an increasing pH range (1.6, 2.0 and 4.0) and Fasted State Simulated Intestinal Fluid (FaSSIF) at a pH of 6.5. Solubility data was also obtained in 50 mM sodium acetate buffer pH 4.5.

[3] = Miniaturised shake flask solubility in Britton-Robinson buffers and biorelevant media (Experiment 8c); details: 37° C., 1, 4 and 24 hours; FIG. 25
Protocol: Solubility of Form I and Form III was also measured in Britton-Robinson buffers (pH 2-8), determined and compared using a standardised miniaturised shake flask method via an automated platform using a development HPLC method for quantification post centrifugation and filtration. Samples were run at 37° C. and performed as 2 replicate preparations for each pH condition and 4 replicate preparations for each biorelevant media condition at 1, 4 and 24 hours.

[4] = Conversion of Form I to Form III under mechanical stress / tablet compression (13C SSNMR, XRPD); details: one manufacturing batch of Form I after the final (agitated) drying step; qualitative assessment by 13C SSNMR and XRPD
Description: Upon investigation, this occurrence was attributed to a combination of a relatively large batch size in a smaller filter drier (agitated drying stage) resulting in the wet material being subjected to greater shear forces during agitation, causing some conversion of Form I to Form III. Conversion of Form I to Form III was also observed during tablet compression process. […] During formulation development, samples of the linerixibat compression blend were compacted in a device to mimic the full-scale tableting process. X-ray powder diffractograms (XRPD) were obtained on these “compacts.” As the compression force was increased, the XRPD pattern changed to give loss of intensity of some peaks and formation of other peaks. This indicated the presence of another solid state form, which was subsequently confirmed as Form III. […] The intensities of Form I and Form III peaks in the ^13C SSNMR spectrum qualitatively indicate similar populations of the two polymorphic forms in the sample of mixture. The ^13C SSNMR data were acquired using the same apparatus and conditions as Example 1e.
^13C SSNMR data for linerixibat tablets, 90 mg of Form I compressed with different forces to achieve three different tensile strengths 1.6 MPa, 2.4 MPa and 3.2 MPa, were collected. The ^13C SSNMR data were acquired using the same apparatus and conditions as Example 1e. […]

[5] = Polymorph screen, relative stability of forms; details: relative to the other forms identified from the form screen
Protocol: Form I of linerixibat, a non-solvated crystalline form that melts with decomposition at onset temperature about 206° C. and peak temperature about 209° C., was identified as the predominant form of linerixibat from a polymorph screen study. Amorphous linerixibat and Form I were used as input material for polymorph screen experiments. […] Form I was obtained from a variety of screening samples, and the solvents used include water, methanol, ethanol, acetone, acetonitrile and ethyl acetate.

[6] = Britton Robinson buffer, pH 3, aqueous buffer, nominal pH 3.0, BR buffer
[7] = Britton Robinson buffer, pH 3.5, aqueous buffer, nominal pH 3.5, BR buffer
[8] = Britton Robinson buffer, pH 3.8, aqueous buffer, nominal pH 3.8, BR buffer
[9] = Britton Robinson buffer, pH 4, aqueous buffer, nominal pH 4.0, BR buffer
[10] = Britton Robinson buffer, pH 5, aqueous buffer, nominal pH 5.0, BR buffer
[11] = acetate buffer, pH 4.5, aqueous buffer, nominal pH 4.5, Acetate buffer
[12] = phosphate buffer, pH 6.8, aqueous buffer, nominal pH 6.8, Phosphate buffer
[13] = simulated gastric fluid (SGF), pH 1.2, simulated gastric fluid, nominal pH 1.2, SGF

`CCCC[C@]1(CC)CS(=O)(=O)c2cc(CNC(CC(=O)O)CC(=O)O)c(OC)cc2[C@@H](c2ccccc2)N1` [Form I] showed a solubility at 1 h [1, 6] of 178 µg/mL (≈ 326 µM), a solubility at 4 h [1, 6] of 198 µg/mL (≈ 362 µM) and a solubility at 24 h [1, 6] of 232 µg/mL (≈ 424 µM). The solubility at 1 h [1, 7] was 99 µg/mL (≈ 181 µM), the solubility at 4 h [1, 7] was 110 µg/mL (≈ 201 µM) and the solubility at 24 h [1, 7] was 128 µg/mL (≈ 234 µM). It also gave a solubility at 1 h [1, 8] of 104 µg/mL (≈ 190 µM), a solubility at 4 h [1, 8] of 113 µg/mL (≈ 207 µM) and a solubility at 24 h [1, 8] of 131 µg/mL (≈ 240 µM). The solubility at 1 h [1, 9] was 118 µg/mL (≈ 216 µM), the solubility at 4 h [1, 9] was 125 µg/mL (≈ 229 µM) and the solubility at 24 h [1, 9] was 146 µg/mL (≈ 267 µM). The solubility at 1 h [1, 10] was 393 µg/mL (≈ 719 µM), the solubility at 4 h [1, 10] was 491 µg/mL (≈ 898 µM) and the solubility at 24 h [1, 10] was 650 µg/mL (≈ 1190 µM). It also gave a solubility at 1 h [1, 11] of 190 µg/mL (≈ 348 µM), a solubility at 4 h [1, 11] of 214 µg/mL (≈ 391 µM) and a solubility at 24 h [1, 11] of 293 µg/mL (≈ 536 µM). For the same molecule, the solubility classification ([1]; all pHs in the physiological range except close to the solubility minimum (between pH 3.2 and pH 4.2), high solubility = above 0.16 mg/mL (40 mg in 250 mL)) was “highly soluble”, the “difference in solubility between Form I and Form III” value ([1]; pH 1.2-6.8, 37±1° C.) was “no significant difference” and the solubility at 1 h [1, 12] was greater than 1000 µg/mL. It also gave a solubility at 4 h [1, 12] greater than 1000 µg/mL, a solubility at 24 h [1, 12] greater than 1000 µg/mL and a solubility at 1 h [1, 13] greater than 1000 µg/mL. For the same molecule, the solubility at 4 h [1, 13] was greater than 1000 µg/mL, the solubility at 24 h [1, 13] was greater than 1000 µg/mL and the solubility at 1 h ([2]; 50 mM sodium acetate buffer, pH 4.5, aqueous buffer, 50 mM Sodium Acetate Buffer pH 4.5, 1 Hour) was 270 µg/mL (≈ 494 µM). The solubility at 4 h ([2]; 50 mM sodium acetate buffer, pH 4.5, aqueous buffer, 50 mM Sodium Acetate Buffer pH 4.5, 4 Hours) was 280 µg/mL (≈ 512 µM), the solubility at 24 h ([2]; 50 mM sodium acetate buffer, pH 4.5, aqueous buffer, 50 mM Sodium Acetate Buffer pH 4.5, 24 Hours) was 300 µg/mL (≈ 549 µM) and the solubility at 1 h ([2]; Fasted State Simulated Intestinal Fluid (FaSSIF), pH 6.5, fassif, FaSSIF pH 6.5, 1 Hour) was 5080 µg/mL (≈ 9290 µM). For the same molecule, the solubility at 4 h ([2]; Fasted State Simulated Intestinal Fluid (FaSSIF), pH 6.5, fassif, FaSSIF pH 6.5, 4 Hours) was 5110 µg/mL (≈ 9350 µM), the solubility at 24 h ([2]; Fasted State Simulated Intestinal Fluid (FaSSIF), pH 6.5, fassif, FaSSIF pH 6.5, 24 Hours) was 5310 µg/mL (≈ 9710 µM) and the solubility at 1 h ([2]; Simulated Gastric Fluid (SGF), pH 1.6, simulated gastric fluid, SGF pH 1.6, 1 Hour) was 7200 µg/mL (≈ 13200 µM). For the same molecule, the solubility at 4 h ([2]; Simulated Gastric Fluid (SGF), pH 1.6, simulated gastric fluid, SGF pH 1.6, 4 Hours) was 7390 µg/mL (≈ 13500 µM), the solubility at 24 h ([2]; Simulated Gastric Fluid (SGF), pH 1.6, simulated gastric fluid, SGF pH 1.6, 24 Hours) was 7910 µg/mL (≈ 14500 µM) and the solubility at 1 h ([2]; Simulated Gastric Fluid (SGF), pH 2, simulated gastric fluid, SGF pH 2.0, 1 Hour) was 1490 µg/mL (≈ 2730 µM). For the same molecule, the solubility at 4 h ([2]; Simulated Gastric Fluid (SGF), pH 2, simulated gastric fluid, SGF pH 2.0, 4 Hours) was 1530 µg/mL (≈ 2800 µM), the solubility at 24 h ([2]; Simulated Gastric Fluid (SGF), pH 2, simulated gastric fluid, SGF pH 2.0, 24 Hours) was 1620 µg/mL (≈ 2960 µM) and the solubility at 1 h ([2]; Simulated Gastric Fluid (SGF), pH 4, simulated gastric fluid, SGF pH 4.0, 1 Hour) was 150 µg/mL (≈ 274 µM). For the same molecule, the solubility at 4 h ([2]; Simulated Gastric Fluid (SGF), pH 4, simulated gastric fluid, SGF pH 4.0, 4 Hours) was 150 µg/mL (≈ 274 µM), the solubility at 24 h ([2]; Simulated Gastric Fluid (SGF), pH 4, simulated gastric fluid, SGF pH 4.0, 24 Hours) was 160 µg/mL (≈ 293 µM) and the “solubility comparison of the forms” value ([2]; all investigated physiologically relevant pH values (1.6 to 6.5)) was “Forms I and III have very similar solubilities at all investigated physiologically”. The “solubility comparison in biorelevant media” value [3] was “very similar”, the “Form III content” value [4] was no more than 10 % w/w and the “relative stability of the form” value [5] was “most stable form”.
